Measured values: the supplement of paper PMC10307832

Key:
Assay in all cases: relative viability (nuclei count vs DMSO), 5 days (fraction); higher = more cells survive
[1] = compound: CC(O)(CS(=O)(=O)c1ccc(F)cc1)C(=O)Nc1ccc(C#N)c(C(F)(F)F)c1 [Bicalutamide] + Nc1nc2[nH]cc(CCc3ccc(C(=O)N[C@@H](CCC(=O)O)C(=O)O)cc3)c2c(=O)[nH]1 [Pemetrexed] (partner 0.2 µM)
Method in brief: (§1)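 Five library-drug doses in √10 steps were combined with a fixed anchor-drug dose, or a single drug was given alone, by pin tool to lung cancer cell lines in 1536-well plates the day after seeding. Nuclei were stained and counted after 5 days. Relative viability is the nuclei count in treated wells over that in vehicle wells, taken as the median of duplicate plates.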

[2] = compound: C(C(=O)C(=O)O)Br [Bromopyruvate] + Cc1nc(NC(=O)N2CCC[C@H]2C(N)=O)sc1-c1ccnc(C(C)(C)C(F)(F)F)c1 [Alpelisib] (partner 2 µM)
Method in brief: as §1

[3] = compound: C(C(=O)C(=O)O)Br [Bromopyruvate]
Method in brief: (§2)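 Lung cancer cell lines were seeded into 1536-well plates, kept overnight at 37 °C and pinned with five library-drug doses (not always all listed) spaced by √10. After 5 days, nuclei were Hoechst-stained, imaged at 4× and counted with MetaXpress. Viability is treated-well nuclei over vehicle-well nuclei, taken as a median across plates. Plates needed control CV below 25% and at least one doubling.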

[4] = compound: CC(O)(CS(=O)(=O)c1ccc(F)cc1)C(=O)Nc1ccc(C#N)c(C(F)(F)F)c1 [Bicalutamide]
Method in brief: as §2

NCI-H2405
relative viability ([1]; first compound 0.08 µM): 1.07 | relative viability ([1]; first compound 0.253 µM): 1.01 | relative viability ([1]; first compound 0.8 µM): 1.35 | relative viability ([1]; first compound 2.53 µM): 1.04 | relative viability ([2]; first compound 1 µM): 0.773 | relative viability ([2]; first compound 3.162 µM): 0.779 | relative viability ([2]; first compound 10 µM): 0.89 | relative viability ([2]; first compound 31.62 µM): 0.583 | relative viability ([2]; first compound 100 µM): 0.737 | relative viability ([3]; 1 µM): 1.06 | relative viability ([3]; 3.162 µM): 0.968 | relative viability ([3]; 10 µM): 0.984 | relative viability ([3]; 31.62 µM): 0.873 | relative viability ([3]; 100 µM): 1.05 | relative viability ([4]; 0.08 µM): 1.07 | relative viability ([4]; 0.253 µM): 0.968 | relative viability ([4]; 0.8 µM): 1.18 | relative viability ([4]; 2.53 µM): 0.926

NCI-H3122
relative viability ([1]; first compound 0.08 µM): 0.202 | relative viability ([1]; first compound 0.253 µM): 0.193 | relative viability ([1]; first compound 0.8 µM): 0.197 | relative viability ([1]; first compound 2.53 µM): 0.199 | relative viability ([2]; first compound 1 µM): 0.841 | relative viability ([2]; first compound 3.162 µM): 0.831 | relative viability ([2]; first compound 10 µM): 0.859 | relative viability ([2]; first compound 31.62 µM): 0.729 | relative viability ([2]; first compound 100 µM): 0.718 | relative viability ([3]; 1 µM): 0.992 | relative viability ([3]; 3.162 µM): 1.01 | relative viability ([3]; 10 µM): 0.999 | relative viability ([3]; 31.62 µM): 0.972 | relative viability ([3]; 100 µM): 1.01 | relative viability ([4]; 0.08 µM): 1.03 | relative viability ([4]; 0.253 µM): 0.977 | relative viability ([4]; 0.8 µM): 1.01 | relative viability ([4]; 2.53 µM): 1.03

PC-3 [JPC-3]
relative viability ([1]; first compound 0.08 µM): 1.08 | relative viability ([1]; first compound 0.253 µM): 1.11 | relative viability ([1]; first compound 0.8 µM): 1.41 | relative viability ([1]; first compound 2.53 µM): 1.12 | relative viability ([2]; first compound 1 µM): 1.06 | relative viability ([2]; first compound 3.162 µM): 1.01 | relative viability ([2]; first compound 10 µM): 1.01 | relative viability ([2]; first compound 31.62 µM): 1.06 | relative viability ([2]; first compound 100 µM): 1.03 | relative viability ([3]; 1 µM): 1.08 | relative viability ([3]; 3.162 µM): 1.04 | relative viability ([3]; 10 µM): 0.986 | relative viability ([3]; 31.62 µM): 1.01 | relative viability ([3]; 100 µM): 1.04 | relative viability ([4]; 0.08 µM): 1.07 | relative viability ([4]; 0.253 µM): 1.03 | relative viability ([4]; 0.8 µM): 1.16 | relative viability ([4]; 2.53 µM): 1.03

PC-14
relative viability ([1]; first compound 0.08 µM): 0.121 | relative viability ([1]; first compound 0.253 µM): 0.121 | relative viability ([1]; first compound 0.8 µM): 0.119 | relative viability ([1]; first compound 2.53 µM): 0.117 | relative viability ([2]; first compound 1 µM): 1.02 | relative viability ([2]; first compound 3.162 µM): 1.01 | relative viability ([2]; first compound 10 µM): 0.93 | relative viability ([2]; first compound 31.62 µM): 0.966 | relative viability ([2]; first compound 100 µM): 0.964 | relative viability ([3]; 1 µM): 1.05 | relative viability ([3]; 3.162 µM): 1.07 | relative viability ([3]; 10 µM): 1.09 | relative viability ([3]; 31.62 µM): 0.997 | relative viability ([3]; 100 µM): 0.943 | relative viability ([4]; 0.08 µM): 1.02 | relative viability ([4]; 0.253 µM): 1.01 | relative viability ([4]; 0.8 µM): 1.15 | relative viability ([4]; 2.53 µM): 0.976

RERF-LC-KJ
relative viability ([1]; first compound 0.08 µM): 0.471 | relative viability ([1]; first compound 0.253 µM): 0.457 | relative viability ([1]; first compound 0.8 µM): 0.517 | relative viability ([1]; first compound 2.53 µM): 0.492 | relative viability ([2]; first compound 1 µM): 0.688 | relative viability ([2]; first compound 3.162 µM): 1.09 | relative viability ([2]; first compound 10 µM): 0.825 | relative viability ([2]; first compound 31.62 µM): 0.773 | relative viability ([2]; first compound 100 µM): 0.82 | relative viability ([3]; 1 µM): 1.04 | relative viability ([3]; 3.162 µM): 1.02 | relative viability ([3]; 10 µM): 1.13 | relative viability ([3]; 31.62 µM): 1.02 | relative viability ([3]; 100 µM): 0.98 | relative viability ([4]; 0.08 µM): 1.01 | relative viability ([4]; 0.253 µM): 0.985 | relative viability ([4]; 0.8 µM): 1.15 | relative viability ([4]; 2.53 µM): 0.982

SK-LU-1
relative viability ([1]; first compound 0.08 µM): 1.03 | relative viability ([1]; first compound 0.253 µM): 1.02 | relative viability ([1]; first compound 0.8 µM): 1.19 | relative viability ([1]; first compound 2.53 µM): 0.928 | relative viability ([2]; first compound 1 µM): 1.09 | relative viability ([2]; first compound 3.162 µM): 1.05 | relative viability ([2]; first compound 10 µM): 0.939 | relative viability ([2]; first compound 31.62 µM): 0.874 | relative viability ([2]; first compound 100 µM): 0.86 | relative viability ([3]; 1 µM): 1.07 | relative viability ([3]; 3.162 µM): 0.93 | relative viability ([3]; 10 µM): 1.2 | relative viability ([3]; 31.62 µM): 0.935 | relative viability ([3]; 100 µM): 0.943 | relative viability ([4]; 0.08 µM): 1.11 | relative viability ([4]; 0.253 µM): 1.02 | relative viability ([4]; 0.8 µM): 1.23 | relative viability ([4]; 2.53 µM): 1.02

SK-MES-1
relative viability ([1]; first compound 0.08 µM): 1.04 | relative viability ([1]; first compound 0.253 µM): 0.867 | relative viability ([1]; first compound 0.8 µM): 0.981 | relative viability ([1]; first compound 2.53 µM): 0.832 | relative viability ([2]; first compound 1 µM): 0.842 | relative viability ([2]; first compound 3.162 µM): 0.878 | relative viability ([2]; first compound 10 µM): 0.915 | relative viability ([2]; first compound 31.62 µM): 0.868 | relative viability ([2]; first compound 100 µM): 1.01 | relative viability ([3]; 1 µM): 0.99 | relative viability ([3]; 3.162 µM): 1.07 | relative viability ([3]; 10 µM): 1.12 | relative viability ([3]; 31.62 µM): 0.958 | relative viability ([3]; 100 µM): 1.05 | relative viability ([4]; 0.08 µM): 1.02 | relative viability ([4]; 0.253 µM): 0.961 | relative viability ([4]; 0.8 µM): 1.09 | relative viability ([4]; 2.53 µM): 0.971

SW 1573
relative viability ([1]; first compound 0.08 µM): 0.952 | relative viability ([1]; first compound 0.253 µM): 0.749 | relative viability ([1]; first compound 0.8 µM): 1.02 | relative viability ([1]; first compound 2.53 µM): 0.819 | relative viability ([2]; first compound 1 µM): 0.761 | relative viability ([2]; first compound 3.162 µM): 0.84 | relative viability ([2]; first compound 10 µM): 0.876 | relative viability ([2]; first compound 31.62 µM): 0.678 | relative viability ([2]; first compound 100 µM): 0.761 | relative viability ([3]; 1 µM): 1.03 | relative viability ([3]; 3.162 µM): 0.995 | relative viability ([3]; 10 µM): 1.13 | relative viability ([3]; 31.62 µM): 0.925 | relative viability ([3]; 100 µM): 0.385 | relative viability ([4]; 0.08 µM): 1.02 | relative viability ([4]; 0.253 µM): 0.757 | relative viability ([4]; 0.8 µM): 1.15 | relative viability ([4]; 2.53 µM): 0.969

UMC-11
relative viability ([1]; first compound 0.08 µM): 0.83 | relative viability ([1]; first compound 0.253 µM): 0.732 | relative viability ([1]; first compound 0.8 µM): 0.829 | relative viability ([1]; first compound 2.53 µM): 0.756 | relative viability ([2]; first compound 1 µM): 1.12 | relative viability ([2]; first compound 3.162 µM): 1.01 | relative viability ([2]; first compound 10 µM): 0.983 | relative viability ([2]; first compound 31.62 µM): 0.997 | relative viability ([2]; first compound 100 µM): 1.01 | relative viability ([3]; 1 µM): 1.03 | relative viability ([3]; 3.162 µM): 0.989 | relative viability ([3]; 10 µM): 0.908 | relative viability ([3]; 31.62 µM): 0.958 | relative viability ([3]; 100 µM): 1 | relative viability ([4]; 0.08 µM): 0.958 | relative viability ([4]; 0.253 µM): 0.909 | relative viability ([4]; 0.8 µM): 1.17 | relative viability ([4]; 2.53 µM): 0.938
